Patent publication US9376429B2, “Sodium channel blockers, preparation method thereof and use thereof” (Daewoong Pharmaceutical Co., Ltd., priority 2012, dated 2016)

molecular target: T1, sodium ion channel (Nav1.7) (Homo sapiens, UniProt Q15858); experiment: Blocking effect against sodium ion channel (Nav1.7), IonFlux16 auto patch clamp, hNav1.7 HEK293 cells; assay type: cell-based; details: peak current after 50 seconds treatment, eight concentrations
T1 construct: host or cells: HEK293
Summary of the method: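 HEK293 cells stably expressing human Nav1.7 were recorded by IonFlux16 automated patch clamp in extracellular solution (pH 7.45, final DMSO ≤0.3%). Peak current was measured after 50 s exposure to each of eight compound concentrations and expressed as percent inhibition relative to pre-compound current.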

T1 sequence (Q15858 whole entry): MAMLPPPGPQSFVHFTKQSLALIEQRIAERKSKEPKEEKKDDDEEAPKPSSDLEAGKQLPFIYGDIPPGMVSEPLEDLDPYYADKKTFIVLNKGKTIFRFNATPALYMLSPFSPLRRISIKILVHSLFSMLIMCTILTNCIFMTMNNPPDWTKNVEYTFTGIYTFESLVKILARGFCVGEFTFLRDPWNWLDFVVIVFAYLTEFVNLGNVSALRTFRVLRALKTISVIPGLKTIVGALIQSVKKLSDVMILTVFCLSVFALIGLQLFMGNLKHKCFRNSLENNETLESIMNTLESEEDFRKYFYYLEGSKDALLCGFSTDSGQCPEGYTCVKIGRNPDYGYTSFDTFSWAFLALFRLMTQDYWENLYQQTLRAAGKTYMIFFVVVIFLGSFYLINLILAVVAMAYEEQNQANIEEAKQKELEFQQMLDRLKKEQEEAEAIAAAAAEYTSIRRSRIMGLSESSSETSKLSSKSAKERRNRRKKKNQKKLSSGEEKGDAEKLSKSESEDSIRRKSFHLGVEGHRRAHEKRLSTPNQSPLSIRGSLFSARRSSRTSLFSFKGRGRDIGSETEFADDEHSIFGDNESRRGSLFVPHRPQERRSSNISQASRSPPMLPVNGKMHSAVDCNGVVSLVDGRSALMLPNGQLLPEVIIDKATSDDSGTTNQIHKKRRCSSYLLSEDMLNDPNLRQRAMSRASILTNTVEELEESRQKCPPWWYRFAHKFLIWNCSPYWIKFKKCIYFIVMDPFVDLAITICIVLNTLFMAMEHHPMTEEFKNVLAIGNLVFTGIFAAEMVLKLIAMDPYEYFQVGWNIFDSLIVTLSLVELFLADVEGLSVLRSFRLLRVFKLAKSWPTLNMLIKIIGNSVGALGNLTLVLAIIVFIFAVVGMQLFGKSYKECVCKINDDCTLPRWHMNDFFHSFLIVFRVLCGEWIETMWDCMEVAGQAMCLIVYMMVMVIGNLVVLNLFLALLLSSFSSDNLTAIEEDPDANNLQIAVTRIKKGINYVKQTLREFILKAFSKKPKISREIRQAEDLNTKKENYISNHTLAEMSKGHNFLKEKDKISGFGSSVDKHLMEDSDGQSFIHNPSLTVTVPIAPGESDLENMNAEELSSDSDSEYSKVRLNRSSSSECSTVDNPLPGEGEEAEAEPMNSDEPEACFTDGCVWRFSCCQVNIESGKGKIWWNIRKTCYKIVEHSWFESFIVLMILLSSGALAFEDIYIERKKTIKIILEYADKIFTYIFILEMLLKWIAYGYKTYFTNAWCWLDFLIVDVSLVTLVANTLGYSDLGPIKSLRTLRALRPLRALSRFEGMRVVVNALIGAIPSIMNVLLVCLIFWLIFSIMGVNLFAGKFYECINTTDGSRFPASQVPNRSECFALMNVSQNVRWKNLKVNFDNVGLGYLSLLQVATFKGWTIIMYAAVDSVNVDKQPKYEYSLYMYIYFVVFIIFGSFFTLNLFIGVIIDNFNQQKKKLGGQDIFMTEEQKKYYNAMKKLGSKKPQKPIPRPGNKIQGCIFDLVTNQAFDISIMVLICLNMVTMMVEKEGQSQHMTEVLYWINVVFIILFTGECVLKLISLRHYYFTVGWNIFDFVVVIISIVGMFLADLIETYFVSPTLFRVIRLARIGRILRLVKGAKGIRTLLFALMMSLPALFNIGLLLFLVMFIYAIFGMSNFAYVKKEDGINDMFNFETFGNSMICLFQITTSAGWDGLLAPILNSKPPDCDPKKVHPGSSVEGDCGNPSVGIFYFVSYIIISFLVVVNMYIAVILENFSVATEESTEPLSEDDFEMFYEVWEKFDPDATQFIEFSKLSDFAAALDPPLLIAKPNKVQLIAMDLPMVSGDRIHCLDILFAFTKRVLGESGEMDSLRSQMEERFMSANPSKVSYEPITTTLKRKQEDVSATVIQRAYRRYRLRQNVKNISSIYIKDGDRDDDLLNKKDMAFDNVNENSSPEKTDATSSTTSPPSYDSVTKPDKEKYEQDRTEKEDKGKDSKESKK

| SMILES | IC50 |
| --- | --- |
| Cn1nccc1-c1cc(-c2cccnc2F)ncc1Oc1ccc(S(=O)(=O)Nc2nccs2)cc1C#N [Example 18, 3-cyano-4-((2′-fluoro-4-(1-methyl-1H-pyrazol-5-yl)-[2,3′-bipyridin]-5-yl)oxy)-N-(thiazol-2-yl)benzenesulfonamide] | > 100 nM |
| O=S(=O)(Nc1cscn1)c1cc(Cl)c(Oc2cnc(-c3ccc(F)nc3F)cc2-c2ccoc2)cc1F [Example 58, 5-chloro-4-((2′,6′-difluoro-4-(furan-3-yl)-[2,3′-bipyridin]-5-yl)oxy)-2-fluoro-N-(thiazol-4-yl)benzenesulfonamide] | > 100 nM |
| N#Cc1cc(S(=O)(=O)Nc2nccs2)ccc1Oc1ccc(-c2ccccc2F)nc1-c1ccoc1 [Example 108, 3-cyano-4-((6-(2-fluorophenyl)-2-(furan-3-yl)pyridin-3-yl)oxy)-N-(thiazol-2-yl)benzenesulfonamide] | 51 to 100 nM |
| O=S(=O)(Nc1cscn1)c1cc(Cl)c(Oc2cnc(-c3cccc(F)c3)cc2-c2ccnc(N3CCNCC3)n2)cc1F [Example 72, 5-chloro-2-fluoro-4-((6-(3-fluorophenyl)-4-(2-(piperazin-1-yl)pyrimidin-4-yl)pyridin-3-yl)oxy)-N-(thiazol-4-yl)benzenesulfonamide] | > 100 nM |
| N#Cc1cc(S(=O)(=O)Nc2nccs2)ccc1Oc1cnc(-c2ccccc2)cc1-c1cncnc1 [Example 34, 3-cyano-4-((6-phenyl-4-(pyrimidin-5-yl)pyridin-3-yl)oxy)-N-(thiazol-2-yl)benzenesulfonamide] | > 100 nM |
| Cn1nccc1-c1cc(-c2ccoc2)ncc1Oc1ccc(S(=O)(=O)Nc2nccs2)cc1C#N [Example 25, 3-cyano-4-((6-(furan-3-yl)-4-(1-methyl-1H-pyrazol-5-yl)pyridin-3-yl)oxy)-N-(thiazol-2-yl)benzenesulfonamide] | > 100 nM |
| N#Cc1cc(S(=O)(=O)Nc2nccs2)ccc1Oc1cnc(-c2cccc(F)c2)cc1-c1ccoc1 [Example 5, 3-cyano-4-(6-(3-fluorophenyl)-4-(furan-3-yl)pyridin-3-yloxy)-N-(thiazol-2-yl)benzenesulfonamide] | < 50 nM |
| N#Cc1cc(S(=O)(=O)Nc2nccs2)ccc1Oc1cnc(-c2ccc(F)nc2F)cc1-c1ccncc1 [Example 53, 3-cyano-4-((2,6-difluoro-[3,2′:4′,4″-terpyridin]-5′-yl)oxy)-N-(thiazol-2-yl)benzenesulfonamide] | > 100 nM |
| N#Cc1cc(S(=O)(=O)Nc2nccs2)ccc1Oc1cnc(-c2ccccc2)cc1-c1ccc(F)nc1 [Example 30, 3-cyano-4-((6-fluoro-6′-phenyl-[3,4′-bipyridin]-3′-yl)oxy)-N-(thiazol-2-yl)benzenesulfonamide] | > 100 nM |
| N#Cc1cc(S(=O)(=O)Nc2nccs2)ccc1Oc1cnc(-c2ccc(F)cc2)cc1-c1ccoc1 [Example 7, 3-cyano-4-(6-(4-fluorophenyl)-4-(furan-3-yl)pyridin-3-yloxy)-N-(thiazol-2-yl)benzenesulfonamide] | 51 to 100 nM |
| N#Cc1cc(S(=O)(=O)Nc2nccs2)ccc1Oc1cnc(-c2ccsc2)cc1-c1ccoc1 [Example 20, 3-cyano-4-((4-(furan-3-yl)-6-(thiophen-3-yl)pyridin-3-yl)oxy)-N-(thiazol-2-yl)benzenesulfonamide] | > 100 nM |
| Cn1nccc1-c1cc(-c2ccccc2)ncc1Oc1ccc(S(=O)(=O)Nc2nccs2)cc1C#N [Example 2] | > 100 nM |
| N#Cc1cc(S(=O)(=O)Nc2nccs2)ccc1Oc1cnc(-c2cncnc2)cc1-c1ccoc1 [Example 15, 3-cyano-4-(4-(furan-3-yl)-6-(pyrimidin-5-yl)pyridin-3-yloxy)-N-(thiazol-2-yl)benzenesulfonamide] | > 100 nM |
| Cc1cc(-c2cc(-c3ccccc3)ncc2Oc2ccc(S(=O)(=O)Nc3nccs3)cc2C#N)cnc1F [Example 32, 3-cyano-4-((6-fluoro-5-methyl-6′-phenyl-[3,4′-bipyridin]-3′-yl)oxy)-N-(thiazol-2-yl)benzenesulfonamide] | > 100 nM |
| O=S(=O)(Nc1cscn1)c1cc(Cl)c(Oc2cnc(-c3ccnc(F)c3)cc2-c2cncnc2)cc1F [Example 77, 5-chloro-2-fluoro-4-((2′-fluoro-4-(pyrimidin-5-yl)-[2,4′-bipyridin]-5-yl)oxy)-N-(thiazol-4-yl)benzenesulfonamide] | > 100 nM |
| N#Cc1cc(S(=O)(=O)Nc2nccs2)ccc1Oc1cnc(-c2cccnc2F)cc1-c1ccoc1 [Example 10, 3-cyano-4-(2′-fluoro-4-(furan-3-yl)-2,3′-bipyridin-5-yloxy)-N-(thiazol-2-yl)benzenesulfonamide] | 51 to 100 nM |
| N#Cc1cc(S(=O)(=O)Nc2nccs2)ccc1Oc1cnc(-c2ccccc2F)cc1-c1cccnc1 [Example 52, 3-cyano-4-((6′-(2-fluorophenyl)-[3,4′-bipyridin]-3′-yl)oxy)-N-(thiazol-2-yl)benzenesulfonamide] | > 100 nM |

More lines, now with the values ahead:

| IC50 | SMILES |
| --- | --- |
| > 100 nM | Cn1nccc1-c1cc(Cl)ccc1C(O)c1ccc(S(=O)(=O)Nc2nccs2)cc1 (centres unmarked) [Example 138, 4-((4-chloro-2-(1-methyl-1H-pyrazol-5-yl)phenyl)(hydroxy)methyl)-N-(thiazol-2-yl)benzenesulfonamide] |
| < 50 nM | O=S(=O)(Nc1nccs1)c1ccc(C(O)c2ccc(Cl)cc2-c2ccoc2)cc1 (centres unmarked) [Example 143, 4-((4-chloro-2-(furan-3-yl)phenyl)(hydroxy)methyl)-N-(thiazol-2-yl)benzenesulfonamide] |
| > 100 nM | Cn1cc(-c2nc(-c3ccnc(F)c3)ccc2Oc2ccc(S(=O)(=O)Nc3nccs3)cc2C#N)cn1 [Example 125, 3-cyano-4-((2′-fluoro-6-(1-methyl-1H-pyrazol-4-yl)-[2,4′-bipyridin]-5-yl)oxy)-N-(thiazol-2-yl)benzenesulfonamide] |
| > 100 nM | Cn1nccc1-c1nc(-c2ccccc2F)ccc1Oc1cc(F)c(S(=O)(=O)Nc2cscn2)cc1Cl [Example 136, 5-chloro-2-fluoro-4-((6-(2-fluorophenyl)-2-(1-methyl-1H-pyrazol-5-yl)pyridin-3-yl)oxy)-N-(thiazol-4-yl)benzenesulfonamide] |
| > 100 nM | Cn1nccc1-c1nc(-c2ccc(F)nc2)ccc1Oc1cc(F)c(S(=O)(=O)Nc2cscn2)cc1Cl [Example 137, 5-chloro-2-fluoro-4-((6′-fluoro-6-(1-methyl-1H-pyrazol-5-yl)-[2,3′-bipyridin]-5-yl)oxy)-N-(thiazol-4-yl)benzenesulfonamide] |
| > 100 nM | Cn1nccc1-c1ccccc1C(O)c1ccc(S(=O)(=O)Nc2nccs2)cc1F (centres unmarked) [Example 142, 3-fluoro-4-(hydroxy(2-(1-methyl-1H-pyrazol-5-yl)phenyl)methyl)-N-(thiazol-2-yl)benzenesulfonamide] |
| > 100 nM | N#Cc1cc(S(=O)(=O)Nc2nccs2)ccc1Oc1ccc(-c2ccoc2)nc1-c1ccoc1 [Example 114, 3-cyano-4-((2,6-di(furan-3-yl)pyridin-3-yl)oxy)-N-(thiazol-2-yl)benzenesulfonamide] |
| 51 to 100 nM | O=S(=O)(Nc1nccs1)c1ccc(C(O)c2ccc(-c3cccc(F)c3)cc2-c2ccoc2)cc1 (centres unmarked) [Example 153, 4-((3′-fluoro-3-(furan-3-yl)-[1,1′-biphenyl]-4-yl)(hydroxy)methyl)-N-(thiazol-2-yl)benzenesulfonamide] |
| > 100 nM | O=S(=O)(Nc1nccs1)c1ccc(C(O)c2ccc(-c3ccc(F)nc3)cc2-c2ccoc2)cc1 (centres unmarked) [Example 151, 4-((4-(6-fluoropyridin-3-yl)-2-(furan-3-yl)phenyl)(hydroxy)methyl)-N-(thiazol-2-yl)benzenesulfonamide] |
